# Reference: PMC7586935 (Journal of Clinical Pharmacology, 2020)
# How the values were obtained:
# [1] = test system: QT/QTc interval of healthy volunteers; assay: Concentration-QTc
# [2] = test system: healthy volunteers; assay: ECG outlier analyses; type: in vivo, human; conditions: moxifloxacin 400 mg, n = 18
# [3] = test system: healthy volunteers; assay: ECG morphological analyses; type: in vivo, human; conditions: moxifloxacin 400 mg, n = 18
# [4] = Plasma pharmacokinetics after single oral dose; type: in vivo; conditions: human, oral, 400 mg
# [5] = test system: healthy volunteers; assay: Safety assessment: treatment-emergent adverse events; type: in vivo, human; conditions: moxifloxacin 400 mg, one subject
compound,measurement,setting,value
COc1c(N2C[C@@H]3CCCN[C@@H]3C2)c(F)cc2c(=O)c(C(=O)O)cn(C3CC3)c12 [Moxifloxacin],"Predicted Mean Effect at Mean Cmax (placebo-corrected change from baseline QTcF, ΔΔQTcF)","[1]; moxifloxacin 400 mg, mean Cmax 2758.3 ng/mL",15.2 ms
same,Slope of placebo-adjusted change from baseline QTcF vs plasma concentration,"[1]; moxifloxacin plasma concentration, assay sensitivity",4.24 ms/[μg/mL]
same,Heart rate: Bradycardic outliers,[2],0 n (%)
same,Heart rate: Tachycardic outliers,[2],1 (6) n (%)
same,PR interval: Outliers,[2],0 n (%)
same,QRS interval: Outliers,[2],0 n (%)
same,QTcF >30‐60 ms inc change from baseline,[2],2 (11) n (%)
same,QTcF >60 ms inc change from baseline,[2],0 n (%)
same,QTcF New >480 ms,[2],0 n (%)
same,QTcF New >500 ms,[2],0 n (%)
same,New ST‐segment depression changes,[3],1 (6) n (%)
same,New ST‐segment elevation changes,[3],0 n (%)
same,New atrial fibrillation,[3],0 n (%)
same,New atrial flutter,[3],0 n (%)
same,New second‐degree heart block,[3],0 n (%)
same,New third‐degree heart block,[3],0 n (%)
same,AUC,[4],24700 ± 5240 ng·h/mL
same,Cmax,[4],2760 ± 559 ng/mL
same,Tmax,[4],1 h
same,"Somnolence, frequency of subjects",[5],5.6%
